Measured values as given in publication PMC3078936 (PLoS ONE, 2011).
pKd: −log10 of the molar value.

Molecular target: T1, DYNLL1 (Homo sapiens, UniProt P63167)
T1 construct: 6xHis (N); made in house; host or cells: E. coli BL21(DE3)Star
Test: Isothermal titration calorimetry of peptide/protein binding to DYNLL1
Conditions: PBS + 3 mM 2-mercaptoethanol pH 7.4, 299 K; for ΔH: ITC binding enthalpy; for -TΔS: ITC entropy term; for pKd: ITC, 15 µM DYNLL1 in the cell, A + B to AB model, dimeric peptides reach the dynamic range limit of ITC
Description: Binding parameters of the in vitro evolved Ac-[…] and naturally evolved Ac-DKSTQTD consensus peptides were determined by isothermal titration calorimetry (ITC). Synthetic peptides were used and N-terminal acetylation was applied to better mimic a non-terminal peptide motif by avoiding the positively charged N-terminus. In order to elucidate the particular contribution of Val-5 to the binding affinity, several control peptides were produced. The in vitro evolved Val-5 was replaced with a glycine (Gly-5) to assess side chain function. In a further truncated variant the entire amino acid residue was replaced with an acetate group (Ac-5) to assess the function of the amide group at position −5. The same variations of Val-5, Gly-5 or Ac-5 were also introduced in the framework of the naturally evolved consensus peptide. DYNNL1 binding of all six variants was analyzed by ITC. In all measurements the stoichiometry of binding was 1∶1 (2 peptides binding to one homodimer DYNNL1). The binding was enthalpy-driven and was accompanied with unfavorable entropy change. Ac-5 versions of both the natural and the in vitro evolved consensus peptide had binding affinities in the micromolar range. Replacing the acetyl group with Gly-5 led to a tenfold affinity increase with both peptides.
All peptides and DYNLL1 were dialyzed overnight in PBS buffer supplemented with 3 mM 2-mercaptoethanol (pH 7.4). A typical binding experiment involved 15 µM DYNLL1 in the cell and 30–40 injections varying between of 3–5 µl peptide solution. For each experiment the thermodynamic parameters were determined at 299 K. We used a VP-ITC instrument from Microcal and the data were fitted by the software package Origin 5.0 (OriginLab) using the simple A + B to AB binding model. The signal from an initial 2 µl injection was eliminated. The equilibration time between injections was 900 sec.

T1 sequence (P63167 whole entry): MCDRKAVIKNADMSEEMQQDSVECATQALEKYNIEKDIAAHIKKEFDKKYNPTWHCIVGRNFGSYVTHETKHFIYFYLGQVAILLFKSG

Row | Substance | ΔH | -TΔS | pKd
1 | dimeric-GSGDKSTQTD [recombinant GCN4 leucine zipper-fused, dimerized Gly-5 natural consensus peptide] | -76.2 kJ/mol | <29.4 kJ/mol | > 8.15
2 | dimeric-GSGSRGTQTE [recombinant GCN4 leucine zipper-fused, dimerized Gly-5 in vitro evolved peptide] | -69.6 kJ/mol | <20.6 kJ/mol | > 8.52
3 | dimeric-GSVDKSTQTD [recombinant GCN4 leucine zipper-fused, dimerized Val-5 natural consensus peptide] | -88 kJ/mol | <42.0 kJ/mol | > 8.05
4 | dimeric-GSVSRGTQTE [recombinant GCN4 leucine zipper-fused, dimerized in vitro evolved consensus peptide] | -64.9 kJ/mol | <17.6 kJ/mol | > 8.15
